Data reported in patent US20250177384A1, “CHROMANOL COMPOUNDS FOR TREATMENT OR PROPHYLAXIS OF AGEING-ASSOCIATED DISORDERS” (Sulfateq B.V., priority 2022, published 2025).

Tests used:
W1118 flies = assay: Drosophila lifespan with compound added to the food; assay type: in vivo; details: for survival of flies versus controls: higher doses of 10, 100, 1000 μM in food, from larvae state until death, FIG. 1, FIG. 2; for lifespan of Drosophila: treatment via food
Method: […] flies were bred and housed at 25° C. with a 12 h:12 h light/dark-cycle. Flies were kept in vials containing approximately 5 mL of Bloomington food consisting of sucrose, yeast suspension, agar, […] and fresh yeast. Flies kept as a stock were flipped to fresh vials weekly. Food was stored at 18° C. and warmed at room temperature before use. SUL109 and SUL121 were used to assess the effect of chromanol compounds on the lifespan of the fly stocks. The compounds were independently tested. Either SUL109 or SUL121 were added to the food to a final concentration of 10 μM, 100 μM and 1000 μM. […] flies were anesthetized in small groups using CO2. Subsequently, flies were collected at a density of […] per tube. At day 10 and 11 eclosing adults were anesthetized and housed at a density of 20 males and females per tube. Ten vials were used per study condition (total of 100 males and 100 females). During the lifespan, flies were transferred onto new vials containing fresh food 3 times a week, and the number and sex of dead flies was recorded.

[1] = system: accelerated aging animal models; details: chronic treatment; cited from earlier work
Ercc1−/− (EC-KO) mice [2] = assay: Endothelium-dependent relaxation of thoracic aorta segments (wire-myograph) after chronic treatment; assay type: in vivo
Method: (§1) EC-KO mice and corresponding littermates (LM) received either SUL138 treated (30 mg SUL138/kg BW/day) or vehicle treated (0.015% [v/v] ethanol) chow for 8 weeks (14-22 weeks of age).
(§2) Segments of thoracic aorta were isolated and mounted in wire-myograph containing Krebs Henseleit buffer (at 37° C., oxygenated with 95% O2 and 5% CO2) to assess endothelium-dependent (ED) relaxation.
Contraction of the thoracic aorta isolates was induced with 100 mM KCl (final concentration) to evaluate vessel viability.
(§3) A stable synthetic analog of the endoperoxide prostaglandin PGH2, namely U46619, was used for pre-constriction. Thoracic aorta segments were washed and subsequently pre-constricted with U46619 (30-60 nM final concentration; 75-100% of the response to 100 mM KCl), followed by a dose response curve with ED vasodilator acetylcholine (ACh) (10^−9-10^−5 M final concentration).
To evaluate the contribution of different pathways to vasodilator response, segments were incubated with inhibitors for 15 minutes prior to pre-constriction with U46619. L-NAME (10^−4 M) was added to assess nitric oxide (NO) contribution to vasodilator response. L-NAME, apamin (100 nM) and TRAM-34 (10 μM) were added to assess ED hyperpolarization factor (EDHF) contribution to vasodilator response.

[3] = system: thoracic aorta segments of EC-KO mice; assay: Acute effect on endothelium-dependent relaxation (pre-incubation of aorta segments); details: pre-incubation 100 μM for 30 minutes
Method: as §2, §3
The acute effect of SUL138 was evaluated by pre-incubating with 100 μM for 30 minutes.

Ercc1−/− (EC-KO) mice [4] = assay: Renal function: urine creatinine, urine albumin, plasma creatinine after chronic treatment; assay type: in vivo
Method: as §1
At the age of 21 weeks, animals were put in metabolic cages. After 10 h of acclimatization, 24 h urine was collected. At the age of 22 weeks, mice were euthanized, urine, blood plasma and tissue were collected.
[…] levels in urine were measured in the samples collected at the age of 21 weeks and at the time euthanasia (22 weeks). QuantiChrom Creatinine Assay Kit (1:2 sample dilution) was used according to manufacturer's instructions.
Albumin levels in urine were measured in the samples collected at the time euthanasia (22 weeks). Mouse albumin ELISA kit ab108792 (1:400 sample dilution) was used according to manufacturer's instructions.
Blood plasma creatinine was measured in the samples collected at the time euthanasia (22 weeks). […]. QuantiChrom Creatinine Assay Kit […] was used according to manufacturer's instructions.

[5] = system: Ercc1-deficient mouse models; assay: Persistent DNA damage in Ercc1-deficient mouse models; assay type: in vivo; details: no method or data given

Structure (SMILES): Cc1c(C)c2c(c(C)c1O)CCC(C)(C(=O)N1CCNCC1)O2 (stereo not drawn) [SUL121, (6-hydroxy-2,5,7,8-tetramethylchroman-2yl)(piperazin-1-yl)methanone]
- survival of flies versus controls (W1118 flies): better survival than the controls
- lifespan of Drosophila (W1118 flies): increased lifespan

Structure (SMILES): CCCc1nn(C)c2c(=O)[nH]c(-c3cc(S(=O)(=O)N4CCN(C)CC4)ccc3OCC)nc12 [sildenafil]
- endothelial dependent relaxation / vasomotor (vasodilator) function [1]: not able to improve endothelial dependent relaxation

Structure (SMILES): Cc1c(C)c2c(c(C)c1O)CC[C@@](C)(C(=O)N1CCN(CCO)CC1)O2 [SUL138, S-(6-hydroxy-2,5,7,8-tetramethylchroman-2-yl)(4-(2-hydroxyethyl)piperazin-1-yl)methanone]
- ED relaxation (acetylcholine response after U46619 pre-constriction) (Ercc1−/− (EC-KO) mice [2]; chronic treatment 30 mg/kg BW/day in chow for 8 weeks, EC-KO mice, compared to LM control levels, FIG. 3): restored ED relaxation
- pathway contribution to ACh response (EDHF-driven ED relaxation) (Ercc1−/− (EC-KO) mice [2]; chronic treatment, EC-KO mice, L-NAME curve, FIG. 6): increased EDHF-driven ED relaxation
- vascular function (summary) (Ercc1−/− (EC-KO) mice [2]; chronic treatment, isolated tissue from Ercc1-deficient mouse models): full preservation of vascular function through EDHF rescue
- ED relaxation after acute treatment [3]: no effect on ED relaxation
- albumin/creatinine ratio in urine (Ercc1−/− (EC-KO) mice [4]; EC-KO mice, 22 weeks, FIG. 8): significant improvement of albumin/creatinine ratios
- creatinine filtration (creatinine in 24 h urine) (Ercc1−/− (EC-KO) mice [4]; EC-KO mice, 24 h urine at 21 weeks, FIG. 10): significantly improved
- creatinine filtration (urine creatinine) (Ercc1−/− (EC-KO) mice [4]; EC-KO mice, urine at 22 weeks, FIG. 7): significantly improved creatinine filtration
- renal function (summary) (Ercc1−/− (EC-KO) mice [4]; Ercc1-deficient mouse models): protection of renal function
- accumulation of persistent DNA damage [5]: attenuation of the accumulation of persistent DNA damage

Structure (SMILES): CCCCc1nc(Cl)c(CO)n1Cc1ccc(-c2ccccc2-c2nn[nH]n2)cc1 [losartan]
- endothelial dependent relaxation / vasomotor (vasodilator) function [1]: did not have a beneficial effect

Structure (SMILES): Cc1c(C)c2c(c(C)c1O)CCC(C)(C(=O)N1CCN(CCO)CC1)O2 (stereo not drawn) [SUL109, (6-hydroxy-2,5,7,8-tetramethylchroman-2-yl)(4-(2-hydroxyethyl)piperazin-1-yl)methanone]
- survival of flies versus controls (W1118 flies): better survival than the controls
- lifespan of Drosophila (W1118 flies): increased lifespan
